# Paper PMC12382614, “(Oxidopyridyl)Porphyrins of Different Lipophilicity: Photophysical Properties, ROS Production and Phototoxicity on Melanoma Cells Under CoCl2-Induced Hypoxia” (Antioxidants, 2025)
# Values joined by “and” are separate entries in the source; they are usually repeats but may differ in a detail not shown here. Identical values can stand only once. Like-named read-outs stand apart in the source and are kept apart here.
# Legend:
# [1] = UV-Vis absorption spectra in MeOH; type: physicochemical
# Procedure: The absorption spectra of (oxidopyridyl)porphyrins were recorded in HPLC grade MeOH on a Cary UV 60 (Agilent Technologies, Santa Clara, CA, USA), in a wavelength range of 300–700 nm. The fluorescence spectra in HPLC grade MeOH were recorded on a Cary Eclipse (Agilent Technologies) in a wavelength range of 500–800 nm after excitation at the Soret band wavelength (λ ~ 420 nm). The slits of the spectrometer were set to a bandpass of 5 nm for the excitation and 5 nm for the emission. To calculate the fluorescence quantum yields, the measurements were conducted on an FS5 Edinburgh Instruments spectrometer. Prior to taking the measurements, the solutions were purged with high-purity N2 for at least 15 min. The absorbance of the solutions was set to A < 0.1 at 405 nm and 550 nm, which settings were used for the excitation process. Emission was recorded from 550 to 800 nm, with slits set to the bandpass corresponding to 2 nm for the excitation, and 3 nm for the emission. Fluorescence quantum yield (ΦFL) was calculated in comparison to the tetraphenylporphyrin (TPP; ΦFL = 0.11 [23]) as a standard, according to Equation (S1) and following an equation previously described elsewhere.
# [2] = Fluorescence decay by time-correlated single-photon counting (TC-SPC); type: physicochemical; conditions: MeOH, N2, λex 405 nm
# Procedure: Time-correlated single-photon counting (TC-SPC) was used to obtain information about fluorescence decays. All measurements were performed on an FS5 Edinburgh Instruments device with a pulsed laser at 405 nm wavelength, which was used for the excitation process (pulse duration 60 ps). Fluorescence signals were monitored at 660 nm over 1023 channels, with a time increment of ≈49 ps/channel. Porphyrins were dissolved in MeOH (HPLC grade), with the absorbance adjusted to 0.1 a.u. at the excitation wavelength, and the solution was degassed with N2 for 15 min before the measurements were taken. All the decays were collected until they reached 3000 counts in the peak channel. A scattering solution, a silica gel suspension in H2O, was used to obtain the instrument response function (IRF). The histograms were analysed using a nonlinear least-squares deconvolution method via the software implemented with the instrument.
# [3] = Laser flash photolysis (LFP), triplet excited state properties; type: physicochemical; conditions: MeOH
# Procedure: Laser flash photolysis (LFP) was performed using an LP980 transient absorption spectrometer (Edinburgh Instruments) equipped with a continuous beam (or pulse mode) Xenon lamp passing through the sample. A nanosecond Nd:YAG laser (Quantel, Q-smart 450, 5 ns pulse duration, 10 Hz, excitation wavelength 355 nm) was then used to excite the sample perpendicular to the lamp beam. The laser beam energy was adjusted to below 5 mJ. The ground state absorbance of the porphyrins in MeOH was adjusted to 0.20–0.25 at 355 nm (the laser excitation wavelength) and the solutions were purged with high-purity N2 for at least 15 min prior to taking the measurements. The samples were prepared for kq determination in an air atmosphere that was N2-purged for 15 min and O2-purged for 15 min before the measurements were taken. The ground state absorption spectra of the samples were also recorded after purging the sample with N2 or O2, and after transient absorption (TAS) measurements were taken to track the differences in every step of the measurement process to ensure that no photoproducts were formed. All measurements were performed at 25 °C in 1 cm quartz cuvettes. Laser flash photolysis was used to measure the kinetics of triplet state depopulation (τT) and triplet-triplet absorption spectra, and to calculate the intersystem crossing quantum yield (ΦISC) and quenching rate constants of triplet excited states by molecular oxygen (kq). To calculate ΦISC, the first step was the calculation of the molar absorption coefficient of the triplet state using the singlet depletion method, completing the first step according to Equation (S2). The ΦISC values were estimated by using a comparative method with TPP (ΦISC = 0.87 in toluene) as the standard. The ΦISC was calculated according to Equation (S3). Triplet excited state lifetimes were determined by fitting the triplet decays to the equation for the mixed first- and second-order decay, as previously described, and the quenching rate constant of a triplet excited state by molecular oxygen was calculated using the Stern–Volmer equation (Equation (S4)).
# A375 = assay: Photocytotoxicity, MTT assay; type: cell-based, human; conditions: red light 643 nm 30 min; for IC50: Homo sapiens, A-375, light or radiation study, 6 h incubation
# Procedure: (§1) For (photo)cytotoxicity assays, stock solutions of porphyrins were prepared in DMSO and dissolved in DMEM to the final concentrations. The porphyrin incubation time was 6h. Irradiation of the cells was with red light (λ = 643 nm) for 30 min (light dose, 3.6 J/cm^2). Nonirradiated cells were used to test the dark toxicity. All measurements were performed in three individual experiments, and the results are shown as the proliferation (%) of the cells and were calculated as IC50 values.
# (§2) The cytotoxicity of (oxidopyridyl)porphyrins was assessed by an MTT assay on the HDF, MeWo and A375 cell lines after 6 h of incubation with porphyrins, without irradiation, or after 30 min of irradiation with red light (λ = 643 nm), and under conditions of normoxia or hypoxia. To induce hypoxia, 100 µM of CoCl2 was added at least two hours before the porphyrins. […] Oxygen is also one of the substrates for the activity of prolyl hydroxylases; therefore, in both cases, the result is the blockage of hydroxylation of HIF-1α and, consequently, its increase and stabilisation, which, in the case of CoCl2-induced hypoxia, can be maintained for several hours.
# HDF = assay: Photocytotoxicity, MTT assay; type: cell-based, human; conditions: for IC50: Homo sapiens, HDF, light or radiation study, 6 h incubation, red light 643 nm 30 min
# Procedure: as §1, §2
# MeWo = assay: Photocytotoxicity, MTT assay; type: cell-based, human; conditions: red light 643 nm 30 min; for IC50: Homo sapiens, MeWo, light or radiation study, 6 h incubation
# Procedure: as §1, §2
# [4] = tested on: HDF, MeWo and A375 cell lines; assay: (Photo)cytotoxicity MTT assay, statements made for all cell lines; type: cell-based, human; conditions: Homo sapiens, light or radiation study; irradiation 643 nm, with or without CoCl2; read-out: IC50 in all the tested cells
# Procedure: as §1, §2
compound,measurement,setting,value
"CCCCCCCCCCCCCCCCCC(=O)Nc1ccc(-c2c3nc(c(-c4ccc[n+]([O-])c4)c4ccc([nH]4)c(-c4ccc[n+]([O-])c4)c4nc(c(-c5ccc[n+]([O-])c5)c5ccc2[nH]5)C=C4)C=C3)cc1 [TOPyP3-C17H35, 5-(4-Octadecanamidophenyl)-10,15,20-tris(1-oxido-3-pyridyl)porphyrin]",ε Qx (0-0),[1],1600 M⁻¹ cm⁻¹
same,ε Qx (1-0),[1],4500 M⁻¹ cm⁻¹
same,ε Qy (0-0),[1],4300 M⁻¹ cm⁻¹
same,ε Qy (1-0),[1],15000 M⁻¹ cm⁻¹
same,ε Soret (B),[1],275400 M⁻¹ cm⁻¹
same,λabs Qx (0-0),[1],646 nm
same,λabs Qx (1-0),[1],587 nm
same,λabs Qy (0-0),[1],547 nm
same,λabs Qy (1-0),[1],512 nm
same,λabs Soret (B),[1],417 nm
same,contribution of τ1 (% of the decay),[2],1%
same,contribution of τ2 (% of the decay),[2],99%
same,"τFL, longer decay time τ2",[2],7.82 ± 0.02 ns and 7.82 ns
same,"τFL, short decay time τ1",[2],0.57 ± 0.08 ns and 0.57 ns
same,τT (lifetime of 3PS*),[3],0.96 ms
same,t from transient absorption kinetics at 450 nm,"[3]; N2, 355 nm laser excitation, Figure S9 inset",987 µs
same,τT (lifetime of the triplet excited state),"[3]; N2-purged, 25 °C",960 ± 30 μs
same,kq (O2) (quenching rate constant of the triplet excited state by O2),[3]; Stern–Volmer,1.4e+09 M⁻¹ s⁻¹
same,ΦISC (quantum yield of intersystem crossing),"[3]; comparative method with TPP, estimated",0.51
same,εT-T (molar absorption coefficient of the triplet state),[3]; singlet depletion method,58 300 M^−1cm^−1
same,IC50,"A375; 3.6 J/cm^2, 100 μM CoCl2 at least 2 h before porphyrin, read-out: IC50 A375 CoCl2",940 ± 150 nM
same,IC50,"A375; 3.6 J/cm^2, normoxia, read-out: IC50 A375 No CoCl2",770 ± 80 nM
same,SI (IC50 (HDF) / IC50 (melanoma cells)) A375 100 µM CoCl2,A375; CoCl2-induced hypoxia,1.2
same,SI (IC50 (HDF) / IC50 (melanoma cells)) A375 No CoCl2,A375; normoxia,1.7
same,reduction in the proliferation of cells,"HDF; 1 µM, irradiation 643 nm, normoxia",~ 40%
same,IC50,"HDF; 3.6 J/cm^2, 100 μM CoCl2 at least 2 h before porphyrin, read-out: IC50 HDF CoCl2",1090 ± 290 nM
same,IC50,"HDF; 3.6 J/cm^2, normoxia, read-out: IC50 HDF No CoCl2",1310 ± 570 nM
same,IC50,"MeWo; 3.6 J/cm^2, 100 μM CoCl2 at least 2 h before porphyrin, read-out: IC50 MeWo CoCl2",680 ± 190 nM
same,IC50,"MeWo; 3.6 J/cm^2, normoxia, read-out: IC50 MeWo No CoCl2",660 ± 140 nM
same,SI (IC50 (HDF) / IC50 (melanoma cells)) MeWo 100 µM CoCl2,MeWo; CoCl2-induced hypoxia,1.6
same,SI (IC50 (HDF) / IC50 (melanoma cells)) MeWo No CoCl2,MeWo; normoxia,2.0
same,IC50,[4],≤ 1000 nM
